# Values quoted from earlier work in patent US20130178495A1, “IBUDILAST FOR RELIEVING NEGATIVE EFFECTS OF MEDICATION OVERUSE HEADACHE” (MediciNova, Inc., priority 2011, published 2013).
# Tests used:
# [1] = rat, bilateral indwelling catheters between the meninges and the skull
# [2] = single patient, 20 mg per day of ibudilast
smiles,measurement,setting,value
CC(C)C(=O)c1c(C(C)C)nn2ccccc12 [ibudilast],facial allodynia,[1],blocked and reversed facial allodynia
same,frequency and intensity of migraine,[2]; migraine on the right side continued,decreased
same,daily headaches,[2]; no control,disappeared in one week
